Laboratory results as given in US8404751B2, “Subunguicide, and method for treating onychomycosis” (Hallux, Inc., priority 2002, dated 2013).
Structures can show the parent of a compound that is named as a salt.

Assay: Solubility of terbinafine HCl in isopropyl alcohol
Type: physicochemical
Method: Terbinafine free base was prepared by adding 2.0 g of terbinafine HCl to 8.0 g of isopropyl alcohol (IPA) and 4.0 g Dowex Marathon A OH ion exchange resin. This resin exchanges OH^− for Cl^− and was washed with IPA prior to use. With the Cl^− removed from solution, the free base formed and the terbinafine went into solution within 5-10 minutes. (Terbinafine HCl is soluble in IPA up to 3.7%.) The reaction with the resin was run for 4 hours. Presence of the free base was confirmed by adding a drop of this IPA solution into water and measuring pH with a color strip. Adding the IPA solution caused the water pH to increase approximately one unit. The resin added OH^− to the solution, which reacted with H^+ and increased the water content. Excess water was removed by storing the terbinafine free base solution over molecular sieves for one week.

- soluble in IPA up to: 3.7%
SMILES: CN(C/C=C/C#CC(C)(C)C)Cc1cccc2ccccc12 [Terbinafine HCl, terbinafine HCl]
